Consider three compounds from paper PMC9977398, “Next-generation membrane-active glycopeptide antibiotics that also inhibit bacterial cell division” (Chemical Science, 2023).

In brackets after ≈: the same amount, converted by molar mass. Where two headings read alike, the source gives them in different places.

Experiment [1] deals with AB 1425 (A. baumannii MTCC 1425). Put plainly: MIC determination, micro-dilution broth. Type of experiment: cell-based. The procedure: (§1) The increase in the carbon content of substituted moieties from six (1) to seven (2 and 3) to ten (5) to twelve (4), increased activity. […]
(§2) Test compound was assayed in a micro -dilution broth format as per the CLSI guideline. The bacterial freeze dried stock samples were stored at -80 °C. About 5 μL of these stocks were added to 3 mL of the respective broth and the culture was grown for 6 h at 37°C with prior to the experiments. This 6 h grown culture was diluted to give effective cell concentration of 10 5 CFU/mL which was then used for determining MIC. Compounds were serially diluted 2 -fold, in sterile millipore water and 50 μL of these serial dilutions were added to the wells of 96 well plate followed by the addition of about 150 μL of bacterial solution. The plates were then incubated for 18-24 h at 37 °C. The O.D. value at 600 nm was recorded using TECAN (Infinite series, M200 pro) Plate Reade r. Each concentration had triplicate values and the whole experiment was done at least twice and the MIC value was determined by taking the average of triplicate O. D. values for each concentration and plotting it against concentration. The data was then subjected to sigmoidal fitting. From the curve the MIC value was determined, as the point where the O. D. was similar to that of control having no bacteria.
In general terms: Broth dilution looks for growth in wells or tubes with falling amounts of substance.

The test system of experiment [2] is AB R674 (A. baumannii). Put plainly: MIC determination, micro-dilution broth. Type of experiment: cell-based. The procedure: as §1, §2
For experiment [3], the system named is MRSA, methicillin-resistant S. aureus (ATCC 33591). Put plainly: MIC determination, micro-dilution broth. Type of experiment: cell-based. Conditions: Staphylococcus aureus, read-out: Minimum inhibitory concentration, MRSA. The procedure:
as §1, §2

For experiment [4], the system named is PA R590 (MDR strain of P. aeruginosa). Put plainly: MIC determination, micro-dilution broth. In kind it is cell-based. The procedure:
as §1, §2

The subject of experiment [5] is exponential growth phase MRSA. Put plainly: Time-kill kinetics, exponentially growing MRSA. In kind it is cell-based, S. aureus. Conditions: for time to complete eradication: exponentially growing MRSA; for minimum bactericidal concentration (MBC): log-phase MRSA. The procedure:
To examine the antibacterial properties of the two leads, VanQbiph (4) and VanQAmC10 (8), the kinetics of bactericidal activity against exponentially growing, log-phase cells of MRSA was evaluated (Fig. 1B). The minimum bactericidal concentration (MBC) of VanQbiph (4) and VanQAmC10 (8) was at 2×MIC. […]
Time-kill kinetics assay 4
The bactericidal activity of the compounds was evaluated with the time kill kinetics assay.
MRSA ATCC 33591 cells were cultured in nutrient media at 37°C for 6 h. VanQAmC 10, VanQbiph, and vancomycin was added to the bacterial solution (~1.8×10^5 CFU/mL) with the working concentration of 25 μM. This was incubated at 37°C. At different time intervals (0, 1, 2, 3, 6 and 24 h) 20 μL of aliquots from that solution were serially diluted 10 -fold in 0.9 % saline. Then from the dilutions, 20 μL was plated on yeast -dextrose agar plates and incubated at 37°C for 24 h. The bacterial colonies were counted and results are represented in logarithmic scale, i.e. log10 (CFU/mL). […]

The subject of experiment [6] is B. subtilis. Put plainly: Cell wall biosynthesis inhibition assay (bubble assay). Type of experiment: cell-based. As to conditions: treatment at PEC. The procedure: To further study the mechanisms contributing to the growth retardation, microscopic studies were carried out upon treatment of B. subtilis with compounds. Upon inhibition of cell wall biosynthesis, holes are formed in the peptidoglycan layer where new cell wall material is no longer incorporated. The cytoplasmic membrane extrudes out of these perforations, appearing as bubbles on the cell surface when treated with a 1 : 3 mixture of acetic acid and methanol.[30] […]
and the untreated control were carefully removed from the well, washed with 0.9 % saline, and placed on glass slides. The biofilms were then stained with 10 μL of SYTO9 (60μM) and imaged using a Zeiss 510 Meta confocal laser-scanning microscope. The orthogonal projections of the images were processed with LSM 5 Image examiner. The experiment was performed three times independently and the image provided is representative of these.
Determination of MIC against B. subtilis
Overnight cultures of B. subtilis 168 were grown in 50 mL flasks in 5 mL BMM media. The bacteria in the mid-log phase were then incubated with compounds for 18 h at 37 ̊C in BMM media. The MIC was determined as the lowest concentration at which no visible bacterial OD […]
Determination of Physiologically Effective Concentration7
Overnight cultures of B. subtilis 168 were grown in 50 mL flasks with 10 mL of media. Upon growing to mid-log phase (an OD500 between 0.5 and 1), bacteria was inoculated in 100mL BMM in a 500 ml flask. When the cultures reach an OD500 of 0.35, the bacteria is aliquoted into separate conicals (50 mL) with 5 ml and compounds are added. The O.D. of the solutions are recorded every 30 minutes. The concentration which retards the growth of bacteria was selected as the PEC. The experiments were performed two times independently and the images are representative of results from two independent experiments. The experiment was done together with the compound published in (J. Med. Chem. 64, 2021, 10185) and therefore the graph for vancomycin is the same.
Cell wall biosynthesis inhibition assay or Bubble assay […]

Setting [7] is: Acinetobacter baumannii, MTCC1425, read-out: Minimum inhibitory concentration, AB 1425.
[8] abbreviates: Acinetobacter baumannii, read-out: Minimum inhibitory concentration, AB R674.
The mark [9] stands for this setting: Pseudomonas aeruginosa, read-out: Minimum inhibitory concentration, PA R590.

With `CN[C@H](CC(C)C)C(=O)N[C@H]1C(=O)N[C@@H](CC(N)=O)C(=O)N[C@H]2C(=O)N[C@H]3C(=O)N[C@H](C(=O)N[C@H](C(=O)O)c4cc(O)cc(O)c4-c4cc3ccc4O)[C@H](O)c3ccc(c(Cl)c3)Oc3cc2cc(c3O[C@@H]2O[C@H](CO)[C@@H](O)[C@H](O)[C@H]2O[C@H]2C[C@](C)(N)[C@H](O)[C@H](C)O2)Oc2ccc(cc2Cl)[C@H]1O` [Vancomycin, reference compound], the MIC in experiment [1] (setting [7]) stood at 100 µM (≈ 145 µg/mL); in experiment [2] (setting [8]), 100 µM (≈ 145 µg/mL); in experiment [3], 0.6 µM (≈ 0.87 µg/mL); in experiment [4] (setting [9]), 100 µM (≈ 145 µg/mL). Besides, the “time to complete eradication” value in experiment [5] (2×MIC) is listed as 24 h. For the same compound, in experiment [6], the “cell wall biosynthesis inhibition (bubbles after acetic acid/methanol fixation)” value was “showed bubbles on the surface”.

Take `CNC(CC(C)C)C(=O)NC1C(=O)NC(CC(N)=O)C(=O)NC2C(=O)NC3C(=O)NC(C(=O)NC(C(=O)NCCC[N+](C)(C)Cc4ccc(-c5ccccc5)cc4)c4cc(O)cc(O)c4-c4cc3ccc4O)C(O)c3ccc(c(Cl)c3)Oc3cc2cc(c3OC2OC(CO)C(O)C(O)C2OC2CC(C)(N)C(O)C(C)O2)Oc2ccc(cc2Cl)C1O` (centres unmarked) [VanQbiph (4)]: the MIC in experiment [1] (Acinetobacter baumannii, MTCC1425; read-out: Minimum inhibitory concentration, AB 1425) was 15.7 µM; in experiment [2] (Acinetobacter baumannii; read-out: Minimum inhibitory concentration, AB R674) it was 24.5 µM; in experiment [3] (MRSA ATCC 33591) it was 0.5 µM; in experiment [4] (Pseudomonas aeruginosa; read-out: Minimum inhibitory concentration, PA R590) it was above 30 µM. In addition, the “time to complete eradication” value in experiment [5] (8×MIC) is reported as 24 h. Further, the “minimum bactericidal concentration (MBC)” value in experiment [5] is 2 ×MIC. For the same compound, the “cell wall biosynthesis inhibition (bubbles after acetic acid/methanol fixation)” value in experiment [6] was “showed bubbles on the surface”.

In the case of `CCCCCCCCCCNC(=O)C[N+](C)(C)CCCNC(=O)C1NC(=O)C2NC(=O)C(NC(=O)C3NC(=O)C(CC(N)=O)NC(=O)C(NC(=O)C(CC(C)C)NC)C(O)c4ccc(c(Cl)c4)Oc4cc3cc(c4OC3OC(CO)C(O)C(O)C3OC3CC(C)(N)C(O)C(C)O3)Oc3ccc(cc3Cl)C2O)c2ccc(O)c(c2)-c2c(O)cc(O)cc21` (centres unmarked) [VanQAmC10 (8)], the MIC in experiment [1] (setting [7]) came to 6.3 µM; in experiment [2] (setting [8]), 10 µM; in experiment [3], 0.4 µM; in experiment [4] (setting [9]), 3.1 µM. The “time to complete eradication” value in experiment [5] (8×MIC) is at most 6 h. In addition, in experiment [5], the “minimum bactericidal concentration (MBC)” value stood at 2 ×MIC. Further, the “cell wall biosynthesis inhibition (bubbles after acetic acid/methanol fixation)” value in experiment [6] is recorded as “showed bubbles on the surface”.
